Assays:
[1] = target: Epidermal growth factor receptor (Homo sapiens, UniProt P00533); experiment: DRUGMATRIX: Protein Tyrosine Kinase, EGF Receptor enzyme inhibition (substrate: Poly(Glu:Tyr)); type: cell-based, Insect cells; settings: Not Active = under 50% inhibition at 10 µM
Melanocortin receptor 4 = Melanocortin receptor 4 (Homo sapiens, UniProt P32245); type: cell membranes, HEK293, Membrane; settings: hek293; note: in other assays of this panel Not Active means under 50% inhibition at 10 µM
Melanocortin receptor 4, sequence (P32245 whole entry): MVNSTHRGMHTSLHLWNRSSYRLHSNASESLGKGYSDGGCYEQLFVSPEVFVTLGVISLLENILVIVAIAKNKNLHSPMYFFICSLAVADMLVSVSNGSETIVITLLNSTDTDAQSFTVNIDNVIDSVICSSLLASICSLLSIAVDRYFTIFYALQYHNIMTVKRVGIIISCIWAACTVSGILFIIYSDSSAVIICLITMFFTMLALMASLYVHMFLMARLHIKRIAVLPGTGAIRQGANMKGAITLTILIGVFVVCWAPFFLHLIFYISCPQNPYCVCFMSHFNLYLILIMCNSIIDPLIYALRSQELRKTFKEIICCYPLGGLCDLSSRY

Glycine receptor = Glycine receptor (Rattus norvegicus, UniProt P22771+P24524+P07727+P20781); type: cell membranes, Wistar, Spinal cord, Membrane; note: in other assays of this panel Not Active means under 50% inhibition at 10 µM
[2] = target: T1, Muscarinic acetylcholine receptor M2 (Homo sapiens, UniProt P08172); type: cell membranes, CHO-K1, Membrane; settings: cho-k1; note: in other assays of this panel Not Active means under 50% inhibition at 10 µM
T1 sequence (P08172 whole entry): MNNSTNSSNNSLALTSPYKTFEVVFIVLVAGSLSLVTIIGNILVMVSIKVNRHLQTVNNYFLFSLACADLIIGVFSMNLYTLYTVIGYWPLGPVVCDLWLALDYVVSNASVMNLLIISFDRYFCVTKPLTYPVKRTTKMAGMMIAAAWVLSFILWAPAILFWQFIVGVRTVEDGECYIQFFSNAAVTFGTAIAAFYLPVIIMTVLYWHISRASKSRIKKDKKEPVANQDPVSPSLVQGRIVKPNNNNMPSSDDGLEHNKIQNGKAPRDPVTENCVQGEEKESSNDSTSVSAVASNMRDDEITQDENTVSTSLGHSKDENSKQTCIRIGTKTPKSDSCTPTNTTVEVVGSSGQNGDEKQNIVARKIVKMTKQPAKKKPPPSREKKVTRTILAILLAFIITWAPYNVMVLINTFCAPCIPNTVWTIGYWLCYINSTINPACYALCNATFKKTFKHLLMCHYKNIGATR

D(4) dopamine receptor = target: T2, D(4) dopamine receptor (Homo sapiens, UniProt P21917); experiment: DRUGMATRIX: Dopamine D4.2 radioligand binding (ligand: [3H] Spiperone); type: cell membranes, CHO-K1, Membrane; settings: cho-k1; Not Active = under 50% inhibition at 10 µM
T2 sequence (P21917 whole entry): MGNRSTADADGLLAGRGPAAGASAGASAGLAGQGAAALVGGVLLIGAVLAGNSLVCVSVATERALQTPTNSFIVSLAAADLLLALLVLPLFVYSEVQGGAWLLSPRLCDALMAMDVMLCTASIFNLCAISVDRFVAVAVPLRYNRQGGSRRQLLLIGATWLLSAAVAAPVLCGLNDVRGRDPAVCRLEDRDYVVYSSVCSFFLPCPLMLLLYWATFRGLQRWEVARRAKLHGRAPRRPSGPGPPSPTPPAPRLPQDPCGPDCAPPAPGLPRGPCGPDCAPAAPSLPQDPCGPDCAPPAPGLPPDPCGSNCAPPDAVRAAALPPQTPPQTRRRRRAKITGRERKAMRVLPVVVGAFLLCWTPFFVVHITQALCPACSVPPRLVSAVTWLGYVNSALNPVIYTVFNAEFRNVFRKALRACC

[3] = DRUGMATRIX: Purinergic P2X radioligand binding (ligand: [3H] alpha, beta-Methylene-ATP); type: cell membranes, Oryctolagus cuniculus, New Zealand albino, Urinary bladder, Membrane; settings: Not Active = under 50% inhibition at 10 µM

Epidermal growth factor receptor, sequence (P00533 whole entry): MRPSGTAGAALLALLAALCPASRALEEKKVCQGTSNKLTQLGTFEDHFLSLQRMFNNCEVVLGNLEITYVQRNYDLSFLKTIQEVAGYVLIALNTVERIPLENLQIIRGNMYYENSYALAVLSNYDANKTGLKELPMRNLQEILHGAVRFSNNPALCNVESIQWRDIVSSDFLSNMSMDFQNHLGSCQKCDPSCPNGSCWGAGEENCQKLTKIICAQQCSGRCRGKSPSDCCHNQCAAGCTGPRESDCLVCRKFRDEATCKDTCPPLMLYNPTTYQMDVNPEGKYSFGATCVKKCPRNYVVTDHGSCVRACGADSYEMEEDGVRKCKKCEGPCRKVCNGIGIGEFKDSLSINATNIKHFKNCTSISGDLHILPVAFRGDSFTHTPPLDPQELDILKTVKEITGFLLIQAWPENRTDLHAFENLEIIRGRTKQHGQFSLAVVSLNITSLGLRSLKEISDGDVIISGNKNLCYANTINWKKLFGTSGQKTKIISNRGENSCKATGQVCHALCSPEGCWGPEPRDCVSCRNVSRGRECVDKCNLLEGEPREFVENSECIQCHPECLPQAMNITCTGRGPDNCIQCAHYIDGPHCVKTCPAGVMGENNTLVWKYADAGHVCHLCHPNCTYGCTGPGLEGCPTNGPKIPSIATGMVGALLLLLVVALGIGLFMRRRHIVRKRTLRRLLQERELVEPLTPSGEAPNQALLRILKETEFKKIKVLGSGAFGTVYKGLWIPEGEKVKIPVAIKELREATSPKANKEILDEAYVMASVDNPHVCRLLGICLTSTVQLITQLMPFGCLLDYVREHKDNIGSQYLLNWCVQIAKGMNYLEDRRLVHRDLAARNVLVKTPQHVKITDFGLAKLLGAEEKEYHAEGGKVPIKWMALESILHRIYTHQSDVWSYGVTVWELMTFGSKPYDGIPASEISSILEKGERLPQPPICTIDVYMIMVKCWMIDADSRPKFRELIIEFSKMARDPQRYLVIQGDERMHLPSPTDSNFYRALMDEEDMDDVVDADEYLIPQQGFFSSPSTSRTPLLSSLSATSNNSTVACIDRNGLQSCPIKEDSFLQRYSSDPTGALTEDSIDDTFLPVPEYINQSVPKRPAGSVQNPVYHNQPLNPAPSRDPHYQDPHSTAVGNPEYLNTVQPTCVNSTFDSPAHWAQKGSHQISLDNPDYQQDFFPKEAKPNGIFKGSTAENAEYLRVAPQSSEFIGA

Structure (SMILES) | IC50 ([1]; insect cells) | IC50 (Melanocortin receptor 4) | IC50 (Glycine receptor) | IC50 [2] | IC50 (D(4) dopamine receptor) | IC50 [3] | Ki [3] | IC50 ([1]; read-out: IC50) [nM]
CC(C)(C)NC(=O)[C@H]1CC[C@H]2[C@@H]3CC[C@H]4NC(=O)C=C[C@]4(C)[C@H]3CC[C@]12C [FINASTERIDE] | Not Active | Not Active | Not Active | Not Active | Not Active | Not Active | Not Active | 
COc1ccc2c3c1O[C@H]1C[C@@H](O)C=C[C@@]31CCN(C)C2 [GALANTAMINE] | Not Active | Not Active | Not Active | Not Active | Not Active | Not Active | Not Active | 
Nc1ccn([C@@H]2O[C@H](CO)[C@@H](O)C2(F)F)c(=O)n1 [GEMCITABINE] | Not Active | Not Active | Not Active | Not Active | Not Active | Not Active | Not Active | 
CC(C)=CCC/C(C)=C/CO [GERANIOL] | Not Active | Not Active | Not Active | Not Active | Not Active | Not Active | Not Active | 
N=C(N)NC(=O)Cc1c(Cl)cccc1Cl [GUANFACINE] | Not Active | Not Active | Not Active | Not Active | Not Active | Not Active | Not Active | 
Oc1c(Cl)cc(Cl)c(Cl)c1Cc1c(O)c(Cl)cc(Cl)c1Cl [HEXACHLOROPHENE] |  | Not Active | Not Active | Not Active | Not Active | Not Active | Not Active | 749
NNc1nncc2ccccc12 [HYDRALAZINE] | Not Active | Not Active | Not Active | Not Active | Not Active | Not Active | Not Active | 
CC(=O)[C@@]1(O)CC[C@H]2[C@@H]3CCC4=CC(=O)CC[C@]4(C)[C@H]3CC[C@@]21C [HYDROXYPROGESTERONE] | Not Active | Not Active | Not Active | Not Active | Not Active | Not Active | Not Active | 
COC1=C(OC)C(=O)C(CCCCCCCCCCO)=C(C)C1=O [IDEBENONE] | Not Active | Not Active | Not Active | Not Active | Not Active | Not Active | Not Active | 
CC(C)NNC(=O)c1ccncc1 [IPRONIAZID] | Not Active | Not Active | Not Active | Not Active | Not Active | Not Active | Not Active | 
Cc1c(OCC(F)(F)F)ccnc1C[S+]([O-])c1nc2ccccc2[nH]1 (configuration not stated) [LANSOPRAZOLE] | Not Active | Not Active | Not Active | Not Active | Not Active | Not Active | Not Active | 
COc1ccc2[nH]cc(CCNC(C)=O)c2c1 [MELATONIN] | Not Active | Not Active | Not Active | Not Active | Not Active | Not Active | Not Active | 
NC(=O)C[S+]([O-])C(c1ccccc1)c1ccccc1 (configuration not stated) [MODAFINIL] | Not Active | Not Active | Not Active | Not Active | Not Active | Not Active | Not Active | 
CCN(CC)CCOCCC1=CCC2CC1C2(C)C (configuration not stated) [MYRTECAINE] | Not Active | Not Active | Not Active | Not Active | Not Active | Not Active | Not Active | 
O=C(O)c1cccnc1Nc1cccc(C(F)(F)F)c1 [NIFLUMIC ACID] | Not Active | Not Active | Not Active | Not Active | Not Active | Not Active | Not Active | 
O=C(N/N=C/c1ccc([N+](=O)[O-])o1)c1cc([N+](=O)[O-])cc([N+](=O)[O-])c1O [NIFURSOL] | Not Active | Not Active | Not Active | Not Active | Not Active | Not Active | Not Active | 

Structure (SMILES) | IC50 ([1]; insect cells) | IC50 (Melanocortin receptor 4) | IC50 (Glycine receptor) | IC50 [2] | IC50 (D(4) dopamine receptor) | IC50 [3] | Ki [3] | IC50 ([1]; read-out: IC50) [nM]
COC(=O)Nc1nc2ccc(C(=O)c3cccs3)cc2[nH]1 [NOCODAZOLE] | Not Active | Not Active | Not Active | Not Active | Not Active | Not Active | Not Active | 
C#CC1(O)CC[C@H]2[C@@H]3CCC4=CC(=O)CC[C@@H]4[C@H]3CC[C@@]21CC (some centres not stated) [NORGESTREL] | Not Active | Not Active | Not Active | Not Active | Not Active | Not Active | Not Active | 
COC(=O)Nc1nc2ccc([S+]([O-])c3ccccc3)cc2[nH]1 (configuration not stated) [OXFENDAZOLE] | Not Active | Not Active | Not Active | Not Active | Not Active | Not Active | Not Active | 
CC(=O)O[C@H]1C(=O)[C@@]2(C)[C@H]([C@H](OC(=O)c3ccccc3)[C@]3(O)C[C@H](OC(=O)[C@H](O)[C@@H](NC(=O)c4ccccc4)c4ccccc4)C(C)=C1C3(C)C)[C@]1(OC(C)=O)CO[C@@H]1C[C@@H]2O [PACLITAXEL] | Not Active | Not Active | Not Active | Not Active | Not Active | Not Active | Not Active | 
C[n+]1ccc(-c2cc[n+](C)cc2)cc1.[Cl-].[Cl-] [PARAQUAT DICHLORIDE] | Not Active | Not Active | Not Active | Not Active | Not Active | Not Active | Not Active | 
CC(C)NCC(O)COc1cccc2[nH]ccc12 (configuration not stated) [PINDOLOL] | Not Active | Not Active | Not Active | Not Active | Not Active | Not Active | Not Active | 
CCn1cc(C(=O)O)c(=O)c2cnc(N3CCCC3)nc21 [PIROMIDIC ACID] | Not Active | Not Active | Not Active | Not Active | Not Active | Not Active | Not Active | 
C[n+]1ccccc1/C=N/O.[Cl-] [PRALIDOXIME CHLORIDE] | Not Active | Not Active | Not Active | Not Active | Not Active | Not Active | Not Active | 
COc1cc2nc(N3CCN(C(=O)c4ccco4)CC3)nc(N)c2cc1OC [PRAZOSIN] | Not Active | Not Active | Not Active | Not Active | Not Active | Not Active | Not Active | 
C[C@]12C=CC(=O)C=C1CC[C@@H]1[C@@H]2[C@@H](O)C[C@@]2(C)[C@H]1CC[C@]2(O)C(=O)CO [PREDNISOLONE] | Not Active | Not Active | Not Active | Not Active | Not Active | Not Active | Not Active | 
CC(=O)[C@H]1[C@H](C#N)C[C@H]2[C@@H]3CC=C4C[C@@H](O)CC[C@]4(C)[C@H]3CC[C@@]21C [PREGNENOLONE CARBONITRILE] | Not Active | Not Active | Not Active | Not Active | Not Active | Not Active | Not Active | 
CCCN(CCC)S(=O)(=O)c1ccc(C(=O)O)cc1 [PROBENECID] | Not Active | Not Active | Not Active | Not Active | Not Active | Not Active | Not Active | 
CCCNCC(O)COc1ccccc1C(=O)CCc1ccccc1 (configuration not stated) [PROPAFENONE] | Not Active | Not Active | Not Active | Not Active | Not Active | Not Active | Not Active | 
CCCOc1ccc(C(=O)OCCN(CC)CC)cc1N [PROPARACAINE] | Not Active | Not Active | Not Active | Not Active | Not Active | Not Active | Not Active | 
CC(C)c1cccc(C(C)C)c1O [PROPOFOL] | Not Active | Not Active | Not Active | Not Active | Not Active | Not Active | Not Active | 
